Data as given in the kinase profiling compilation of Christmann-Franck et al. (2016).

Legend:
Assay in all cases: radiometric filter-binding kinase assay, Kinase HotSpot
Settings in all cases: compound 0.5 µM; ATP 10 µM
AKT3 (human) = AKT3 (human) (UniProt Q9Y243)
ALK (human) = ALK (human) (UniProt Q9UM73)
CDK3 CCNE1 (human) = CDK3 CCNE1 (human) (UniProt Q00526+P24864)
CDK5 CDK5R1 p25 (human) = CDK5 CDK5R1 p25 (human) (UniProt Q00535+Q15078)
CDK9 CCNT1 (human) = CDK9 CCNT1 (human) (UniProt P50750+O60563)
EPHA8 (human) = EPHA8 (human) (UniProt P29322)
GRK7 (human) = GRK7 (human) (UniProt Q8WTQ7)
HCK (human) = HCK (human) (UniProt P08631)
Sequence of HCK (human) (P08631 whole entry, looked up): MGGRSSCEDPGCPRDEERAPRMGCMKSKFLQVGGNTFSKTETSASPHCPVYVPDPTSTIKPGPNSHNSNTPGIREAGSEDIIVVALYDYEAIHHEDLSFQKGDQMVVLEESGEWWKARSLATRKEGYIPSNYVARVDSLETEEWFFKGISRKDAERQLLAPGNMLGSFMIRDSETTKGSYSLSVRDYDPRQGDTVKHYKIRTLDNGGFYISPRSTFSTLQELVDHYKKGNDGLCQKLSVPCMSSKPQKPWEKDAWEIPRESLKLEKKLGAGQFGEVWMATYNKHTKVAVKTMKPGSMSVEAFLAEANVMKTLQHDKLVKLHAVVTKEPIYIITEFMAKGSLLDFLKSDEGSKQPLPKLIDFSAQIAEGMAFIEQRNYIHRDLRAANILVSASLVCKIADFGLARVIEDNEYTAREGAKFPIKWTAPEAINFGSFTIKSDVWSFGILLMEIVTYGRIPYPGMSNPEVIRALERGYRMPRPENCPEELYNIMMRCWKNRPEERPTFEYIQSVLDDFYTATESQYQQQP

MAP3K5 (human) = MAP3K5 (human) (UniProt Q99683)
MUSK (human) = MUSK (human) (UniProt O15146)
SRC (human) = SRC (human) (UniProt P12931)
CAMK1G (human) = CAMK1G (human) (UniProt Q96NX5)
Sequence of CAMK1G (human) (Q96NX5 whole entry, looked up): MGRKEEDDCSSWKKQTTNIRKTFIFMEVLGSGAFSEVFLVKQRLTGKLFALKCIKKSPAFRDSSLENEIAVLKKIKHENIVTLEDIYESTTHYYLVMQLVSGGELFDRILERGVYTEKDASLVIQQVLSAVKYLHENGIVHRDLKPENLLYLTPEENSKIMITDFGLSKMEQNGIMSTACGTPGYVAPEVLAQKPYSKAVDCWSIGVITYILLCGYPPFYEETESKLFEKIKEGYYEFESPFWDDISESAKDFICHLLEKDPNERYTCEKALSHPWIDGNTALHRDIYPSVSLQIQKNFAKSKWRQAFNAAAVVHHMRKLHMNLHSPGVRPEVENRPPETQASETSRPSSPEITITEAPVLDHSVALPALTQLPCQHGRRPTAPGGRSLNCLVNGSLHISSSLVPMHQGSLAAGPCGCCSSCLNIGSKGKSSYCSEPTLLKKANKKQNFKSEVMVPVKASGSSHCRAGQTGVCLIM

CDK7 CCNH MNAT1 (human) = CDK7 CCNH MNAT1 (human) (UniProt P50613+P51948+P51946)
CSF1R (human) = CSF1R (human) (UniProt P07333)
DAPK1 (human) = DAPK1 (human) (UniProt P53355)
EPHB3 (human) = EPHB3 (human) (UniProt P54753)
ERBB2 (human) = ERBB2 (human) (UniProt P04626)
HIPK2 (human) = HIPK2 (human) (UniProt Q9H2X6)
IKBKB (human) = IKBKB (human) (UniProt O14920)
Sequence of IKBKB (human) (O14920 whole entry, looked up): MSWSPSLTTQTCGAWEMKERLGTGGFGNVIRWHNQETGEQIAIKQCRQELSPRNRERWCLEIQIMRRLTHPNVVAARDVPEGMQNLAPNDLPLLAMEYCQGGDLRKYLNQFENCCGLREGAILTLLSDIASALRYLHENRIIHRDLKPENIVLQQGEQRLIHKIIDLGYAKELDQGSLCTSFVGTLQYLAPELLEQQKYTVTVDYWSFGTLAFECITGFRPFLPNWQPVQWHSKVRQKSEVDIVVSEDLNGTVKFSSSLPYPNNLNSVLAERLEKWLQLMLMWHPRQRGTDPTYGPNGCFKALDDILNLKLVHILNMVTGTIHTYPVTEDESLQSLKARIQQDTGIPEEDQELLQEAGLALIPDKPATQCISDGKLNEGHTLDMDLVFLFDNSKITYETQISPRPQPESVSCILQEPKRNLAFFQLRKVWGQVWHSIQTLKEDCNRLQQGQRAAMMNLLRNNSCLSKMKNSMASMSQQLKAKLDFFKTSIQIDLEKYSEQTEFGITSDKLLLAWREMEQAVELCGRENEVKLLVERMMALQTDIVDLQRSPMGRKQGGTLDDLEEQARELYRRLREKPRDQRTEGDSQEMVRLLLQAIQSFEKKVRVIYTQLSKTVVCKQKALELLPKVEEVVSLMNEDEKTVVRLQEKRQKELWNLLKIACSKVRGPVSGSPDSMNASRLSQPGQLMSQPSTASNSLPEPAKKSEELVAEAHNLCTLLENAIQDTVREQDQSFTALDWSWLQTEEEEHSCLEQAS

MAP3K3 (human) = MAP3K3 (human) (UniProt Q99759)
MAP4K2 (human) = MAP4K2 (human) (UniProt Q12851)
MAPK13 (human) = MAPK13 (human) (UniProt O15264)
MARK1 (human) = MARK1 (human) (UniProt Q9P0L2)
MERTK (human) = MERTK (human) (UniProt Q12866)
MYLK (human) = MYLK (human) (UniProt Q15746)
NEK3 (human) = NEK3 (human) (UniProt P51956)
NTRK3 (human) = NTRK3 (human) (UniProt Q16288)
OXSR1 (human) = OXSR1 (human) (UniProt O95747)
PAK4 (human) = PAK4 (human) (UniProt O96013)
Sequence of PAK4 (human) (O96013 whole entry, looked up): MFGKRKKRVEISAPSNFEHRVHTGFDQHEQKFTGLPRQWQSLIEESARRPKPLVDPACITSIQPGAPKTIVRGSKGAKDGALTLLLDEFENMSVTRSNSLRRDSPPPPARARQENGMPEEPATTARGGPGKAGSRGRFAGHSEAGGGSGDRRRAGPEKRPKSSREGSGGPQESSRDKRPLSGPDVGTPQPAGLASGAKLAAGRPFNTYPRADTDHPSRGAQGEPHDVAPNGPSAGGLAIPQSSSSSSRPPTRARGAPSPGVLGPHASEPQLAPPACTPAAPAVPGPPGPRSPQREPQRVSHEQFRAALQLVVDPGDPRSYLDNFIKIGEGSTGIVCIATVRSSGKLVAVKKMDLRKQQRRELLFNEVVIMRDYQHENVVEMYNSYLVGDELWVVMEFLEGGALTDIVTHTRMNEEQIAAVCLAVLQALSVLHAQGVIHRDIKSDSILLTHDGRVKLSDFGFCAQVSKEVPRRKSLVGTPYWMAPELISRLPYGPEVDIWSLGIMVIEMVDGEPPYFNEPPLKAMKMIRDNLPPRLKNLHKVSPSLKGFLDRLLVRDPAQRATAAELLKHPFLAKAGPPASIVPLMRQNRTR

PRKCA (human) = PRKCA (human) (UniProt P17252)
PRKCD (human) = PRKCD (human) (UniProt Q05655)
PRKD2 (human) = PRKD2 (human) (UniProt Q9BZL6)
Sequence of PRKD2 (human) (Q9BZL6 whole entry, looked up): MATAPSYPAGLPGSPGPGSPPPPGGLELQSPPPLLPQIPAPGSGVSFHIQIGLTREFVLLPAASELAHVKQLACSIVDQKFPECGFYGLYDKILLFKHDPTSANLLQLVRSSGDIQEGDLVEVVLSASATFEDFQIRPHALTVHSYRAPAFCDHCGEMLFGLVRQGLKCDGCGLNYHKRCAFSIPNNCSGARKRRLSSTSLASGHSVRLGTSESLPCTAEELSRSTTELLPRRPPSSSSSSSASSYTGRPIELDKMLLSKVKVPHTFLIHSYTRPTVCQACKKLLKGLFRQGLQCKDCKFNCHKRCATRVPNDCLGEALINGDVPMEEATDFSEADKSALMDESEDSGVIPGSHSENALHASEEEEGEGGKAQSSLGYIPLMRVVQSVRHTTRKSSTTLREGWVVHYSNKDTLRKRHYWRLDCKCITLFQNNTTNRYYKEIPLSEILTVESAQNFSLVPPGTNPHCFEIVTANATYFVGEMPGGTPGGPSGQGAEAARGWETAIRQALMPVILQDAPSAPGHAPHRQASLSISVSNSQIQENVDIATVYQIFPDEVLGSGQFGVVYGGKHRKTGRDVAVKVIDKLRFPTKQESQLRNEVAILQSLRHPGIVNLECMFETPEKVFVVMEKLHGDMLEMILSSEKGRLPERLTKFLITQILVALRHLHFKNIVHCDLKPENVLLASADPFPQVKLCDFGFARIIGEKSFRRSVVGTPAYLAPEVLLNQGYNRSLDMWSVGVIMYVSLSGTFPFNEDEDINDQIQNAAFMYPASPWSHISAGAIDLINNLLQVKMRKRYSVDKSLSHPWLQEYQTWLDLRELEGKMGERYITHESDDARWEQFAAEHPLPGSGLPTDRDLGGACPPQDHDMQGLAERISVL

RIPK2 (human) = RIPK2 (human) (UniProt O43353)
Sequence of RIPK2 (human) (O43353 whole entry, looked up): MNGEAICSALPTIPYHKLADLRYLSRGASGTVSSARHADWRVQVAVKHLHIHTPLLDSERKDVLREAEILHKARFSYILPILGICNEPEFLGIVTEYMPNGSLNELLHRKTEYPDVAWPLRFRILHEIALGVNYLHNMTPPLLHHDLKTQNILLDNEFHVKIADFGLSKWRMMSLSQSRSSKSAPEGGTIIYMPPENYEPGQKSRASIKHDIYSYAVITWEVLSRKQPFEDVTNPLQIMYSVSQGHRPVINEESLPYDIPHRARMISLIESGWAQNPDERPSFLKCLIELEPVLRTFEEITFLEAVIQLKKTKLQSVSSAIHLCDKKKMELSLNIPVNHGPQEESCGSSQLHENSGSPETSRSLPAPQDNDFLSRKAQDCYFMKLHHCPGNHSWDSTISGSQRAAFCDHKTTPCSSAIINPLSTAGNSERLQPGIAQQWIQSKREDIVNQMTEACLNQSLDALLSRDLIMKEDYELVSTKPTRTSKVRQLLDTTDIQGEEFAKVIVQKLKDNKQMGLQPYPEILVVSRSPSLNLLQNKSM

RPS6KA6 KD1 KD2 (human) = RPS6KA6 KD1 KD2 (human) (UniProt Q9UK32)
RPS6KB1 (human) = RPS6KB1 (human) (UniProt P23443)
[1] = test system: SGK1 (human), O00141 [S422D]
SLK (human) = SLK (human) (UniProt Q9H2G2)
STK24 (human) = STK24 (human) (UniProt Q9Y6E0)
TTK (human) = TTK (human) (UniProt P33981)
VRK1 (human) = VRK1 (human) (UniProt Q99986)
ABL1 (human) = ABL1 (human) (UniProt P00519)

Sequence of AKT3 (human) (Q9Y243 whole entry, looked up): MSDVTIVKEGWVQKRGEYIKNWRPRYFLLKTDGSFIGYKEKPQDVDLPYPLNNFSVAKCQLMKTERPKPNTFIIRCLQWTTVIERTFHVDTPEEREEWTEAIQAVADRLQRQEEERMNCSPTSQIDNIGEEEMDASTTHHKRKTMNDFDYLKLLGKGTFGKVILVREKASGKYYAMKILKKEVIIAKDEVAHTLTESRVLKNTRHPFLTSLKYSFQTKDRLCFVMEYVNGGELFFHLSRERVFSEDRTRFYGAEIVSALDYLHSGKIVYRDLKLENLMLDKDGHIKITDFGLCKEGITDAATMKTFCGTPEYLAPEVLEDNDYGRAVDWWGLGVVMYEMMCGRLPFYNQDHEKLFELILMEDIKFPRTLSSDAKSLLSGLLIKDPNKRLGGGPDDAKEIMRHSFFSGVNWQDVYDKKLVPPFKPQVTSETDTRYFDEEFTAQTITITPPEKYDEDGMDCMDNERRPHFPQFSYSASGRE

Structure (SMILES)	residual activity (AKT3 (human)) [%]	residual activity (ALK (human)) [%]	residual activity (CDK3 CCNE1 (human)) [%]	residual activity (CDK5 CDK5R1 p25 (human)) [%]	residual activity (CDK9 CCNT1 (human)) [%]	residual activity (EPHA8 (human)) [%]	residual activity (GRK7 (human)) [%]	residual activity (HCK (human)) [%]	residual activity (MAP3K5 (human)) [%]	residual activity (MUSK (human)) [%]	residual activity (SRC (human)) [%]	residual activity (CAMK1G (human)) [%]	residual activity (CDK7 CCNH MNAT1 (human)) [%]	residual activity (DAPK1 (human)) [%]	residual activity (EPHB3 (human)) [%]	residual activity (ERBB2 (human)) [%]	residual activity (HIPK2 (human)) [%]	residual activity (IKBKB (human)) [%]	residual activity (MAP3K3 (human)) [%]	residual activity (MAPK13 (human)) [%]	further results
CN[C@@H]1C[C@H]2O[C@@](C)([C@@H]1OC)n1c3ccccc3c3c4c(c5c6ccccc6n2c5c31)C(=O)NC4	2.97	0.859	8.24	2.78	1.38	25.7	0.737	3.26	4.72	12.2	1.46	–	–	–	–	–	–	–	–	–	–
COc1cc2c(cc1OC)-c1[nH]nc(Nc3cccc(F)c3)c1C2	96.1	103	95.4	89	97.6	94.2	101	61.9	99.9	82.7	63.4	101	101	90.7	97.2	101	103	98.2	103	99.7	residual activity (CSF1R (human)): 20%; residual activity (MAP4K2 (human)): 103%; residual activity (MARK1 (human)): 96.1%; residual activity (MERTK (human)): 78.7%; residual activity (MYLK (human)): 102%; residual activity (NEK3 (human)): 97.1%; residual activity (NTRK3 (human)): 72.6%; residual activity (OXSR1 (human)): 121%; residual activity (PAK4 (human)): 89.9%; residual activity (PRKCA (human)): 99.2%; residual activity (PRKCD (human)): 111%; residual activity (PRKD2 (human)): 96.3%; residual activity (RIPK2 (human)): 76.3%; residual activity (RPS6KA6 KD1 KD2 (human)): 93.6%; residual activity (RPS6KB1 (human)): 99.1%; residual activity [1]: 99.8%; residual activity (SLK (human)): 95.4%; residual activity (STK24 (human)): 99.9%; residual activity (TTK (human)): 84.1%; residual activity (VRK1 (human)): 89.9%
COc1cc2c(N3CCN(C(=O)Nc4ccc(OC(C)C)cc4)CC3)ncnc2cc1OCCCN1CCCCC1	106	103	90.6	104	100	96.6	104	93.2	96.6	99.6	102	94.6	109	103	84.2	104	91.8	97.3	106	99.3	residual activity (ABL1 (human)): 104%; residual activity (MAP4K2 (human)): 104%; residual activity (MARK1 (human)): 89.9%; residual activity (MERTK (human)): 106%; residual activity (MYLK (human)): 96.6%; residual activity (NEK3 (human)): 103%; residual activity (OXSR1 (human)): 95.8%; residual activity (PAK4 (human)): 103%; residual activity (PRKCA (human)): 109%; residual activity (PRKCD (human)): 101%; residual activity (PRKD2 (human)): 96.4%; residual activity (RIPK2 (human)): 110%; residual activity (RPS6KA6 KD1 KD2 (human)): 106%; residual activity (RPS6KB1 (human)): 107%; residual activity [1]: 123%; residual activity (SLK (human)): 94.6%; residual activity (STK24 (human)): 102%; residual activity (TTK (human)): 100%; residual activity (VRK1 (human)): 100%
COc1cc2c(Nc3ccc(Br)cc3F)ncnc2cc1OCC1CCN(C)CC1	100	–	92.9	97.8	–	33.9	96.4	–	102	94.6	11	101	102	105	77.4	72.2	99.4	87.7	102	95.5	residual activity (MARK1 (human)): 83.7%; residual activity (MERTK (human)): 47.9%; residual activity (MYLK (human)): 94.2%; residual activity (NEK3 (human)): 103%; residual activity (NTRK3 (human)): 72.2%; residual activity (OXSR1 (human)): 100%; residual activity (PAK4 (human)): 90.2%; residual activity (PRKCA (human)): 97.1%; residual activity (PRKCD (human)): 103%; residual activity (PRKD2 (human)): 92%; residual activity (RIPK2 (human)): 23.4%; residual activity (RPS6KA6 KD1 KD2 (human)): 99.3%; residual activity [1]: 115%; residual activity (SLK (human)): 73.9%; residual activity (STK24 (human)): 104%; residual activity (TTK (human)): 95.1%; residual activity (VRK1 (human)): 98.9%
FC(F)(F)c1ccc(/C=C/c2nc(COc3ccc(CCCCn4ccnn4)cc3)co2)cc1	96.3	108	91	–	99.5	104	97.8	93.9	97.2	104	92.5	95	107	91.3	94.9	102	90.2	98.6	112	99.1	residual activity (CSF1R (human)): 103%; residual activity (MAP4K2 (human)): 105%; residual activity (MARK1 (human)): 102%; residual activity (MERTK (human)): 97.9%; residual activity (MYLK (human)): 94.8%; residual activity (NEK3 (human)): 100%; residual activity (NTRK3 (human)): 98.9%; residual activity (OXSR1 (human)): 99.7%; residual activity (PAK4 (human)): 107%; residual activity (PRKCA (human)): 111%; residual activity (PRKCD (human)): 99.6%; residual activity (PRKD2 (human)): 96.9%; residual activity (RIPK2 (human)): 109%; residual activity (RPS6KA6 KD1 KD2 (human)): 100%; residual activity (RPS6KB1 (human)): 105%; residual activity [1]: 102%; residual activity (SLK (human)): 92.8%; residual activity (STK24 (human)): 101%; residual activity (TTK (human)): 111%; residual activity (VRK1 (human)): 99.8%
